{"source": "patent US10681909B2", "about": "“Herbicidal triazoles” (FMC Corporation, priority 2014, dated 2020)", "key": {"[1]": {"system": "blackgrass", "experiment": "Test C preemergence", "type": "in vivo, Alopecurus myosuroides", "settings": "for Plant response rating (scale of 0 to 100 where 0 is no effect and 100 is complete control): Blackgrass, preemergence; for Blackgrass plant response rating (0 to 100): Preemergence, visual rating after 13 to 15 d", "excerpt": "(§1) Seeds of plant species selected from blackgrass (Alopecurus myosuroides), ryegrass, Italian (Italian ryegrass, Lolium multiflorum), wheat (winter wheat, Triticum aestivum), galium (catchweed bedstraw, Galium aparine), corn (Zea mays), crabgrass, large (large crabgrass, Digitaria sanguinalis), foxtail, giant, (giant foxtail, Setaria faberii), johnsongrass (Sorghum halepense), lambsquarters (Chenopodium album), morningglory (Ipomoea coccinea), nutsedge, yellow (yellow nutsedge, Cyperus esculentus), pigweed (Amaranthus retroflexus), ragweed (common ragweed, Ambrosia elatior), soybean (Glycine max), barnyardgrass (Echinochloa crus-galli), oilseed rape (Brassica napus), waterhemp (common waterhemp, Amaranthus rudis), and velvetleaf (Abutilon theophrasti) were planted into a blend of loam soil and sand and treated preemergence with test chemicals formulated in a non-phytotoxic solvent mixture which included a surfactant. At the same time, plants selected from these crop and weed species and also chickweed (common chickweed, Stellaria media), oat, wild (wild oat, Avena fatua), and kochia (Kochia scoparia), were planted in pots containing Sunshine Redi-Earth® planting medium comprising spaghnum peat moss, vermiculite, starter nutrients and dolomitic limestone and treated with postemergence applications of test chemicals formulated in the same manner. Plants ranged in height from 2 to 18 cm (1- to 4-leaf stage) for postemergence treatments. […] A dash (-) response means no test result."}, "[2]": {"system": "soybean", "experiment": "Test C preemergence", "type": "in vivo, Glycine max", "settings": "for Soybean plant response rating (0 to 100): Preemergence, visual rating after 13 to 15 d", "excerpt": "as §1"}, "[3]": {"system": "oilseed rape", "experiment": "Test C preemergence", "type": "in vivo, Brassica napus", "settings": "for Plant response rating (scale of 0 to 100 where 0 is no effect and 100 is complete control): Oilseed Rape, preemergence; for Oilseed Rape plant response rating (0 to 100): Preemergence, visual rating after 13 to 15 d", "excerpt": "as §1"}, "[4]": {"system": "waterhemp", "experiment": "Test C preemergence", "type": "in vivo, Amaranthus rudis", "settings": "for Waterhemp plant response rating (0 to 100): Preemergence, visual rating after 13 to 15 d", "excerpt": "as §1"}, "[5]": {"system": "blackgrass", "experiment": "Test D preemergence", "type": "in vivo, Alopecurus myosuroides", "settings": "for Plant response rating: Blackgrass: scale 0 to 100", "excerpt": "(§2) Seeds of plant species selected from bluegrass (annual bluegrass, Poa annua), blackgrass (Alopecurus myosuroides), canarygrass (Phalaris minor), chickweed (common chickweed, Stellaria media), galium (catchweed bedstraw, Galium aparine), bromegrass, down (downy bromegrass, Bromus tectorum), Russian thistle (Salsola kali), field poppy (Papaver rhoeas), field violet (Viola arvensis), foxtail, green (green foxtail, Setaria viridis), deadnettle (henbit deadnettle, Lamium amplexicaule), ryegrass, Ital. (Italian ryegrass, Lolium multiflorum), kochia (Kochia scoparia), lambsquarters (Chenopodium album), oilseed rape (Brassica napus), pigweed (Amaranthus retroflexus), chamomile (scentless chamomile, Matricaria inodora), speedwell (bird's-eye speedwell, Veronica persica), barley, spring (spring barley, Hordeum vulgare), wheat, spring (spring wheat, Triticum aestivum), buckwheat, wild (wild buckwheat, Polygonum convolvulus), wild mustard (Sinapis arvensis), oat, wild (wild oat, Avena fatua), radish, wild (wild radish, Raphanus raphanistrum), […]), barley, winter (winter barley, Hordeum vulgare), and wheat, winter (winter wheat, Triticum aestivum) were planted into a silt loam soil and treated preemergence with test chemicals formulated in a non-phytotoxic solvent mixture which included a surfactant. At the same time, these species were planted in pots containing Sunshine Redi-Earth® planting medium comprising spaghnum peat moss, vermiculite, starter nutrients and dolomitic limestone and treated with postemergence applications of the test chemicals formulated in the same manner. Plants ranged in height from 2 to 18 cm (1- to 4-leaf stage). Treated plants and controls were maintained in a controlled growth environment for 14 to 21 d after which time all species were compared to controls and visually evaluated. […] A dash (-) response means no test result."}, "[6]": {"system": "canarygrass", "experiment": "Test D preemergence", "type": "in vivo, Phalaris minor", "settings": "for Plant response rating: Canarygrass: scale 0 to 100", "excerpt": "as §2"}, "[7]": {"system": "Russian thistle", "experiment": "Test D preemergence", "type": "in vivo, Salsola kali", "settings": "for Plant response rating: Russian Thistle: scale 0 to 100", "excerpt": "as §2"}, "[8]": {"system": "field poppy", "experiment": "Test D preemergence", "type": "in vivo, Papaver rhoeas", "settings": "for Plant response rating: Field Poppy: scale 0 to 100", "excerpt": "as §2"}, "[9]": {"system": "field violet", "experiment": "Test D preemergence", "type": "in vivo, Viola arvensis", "settings": "for Plant response rating: Field Violet: scale 0 to 100", "excerpt": "as §2"}, "[10]": {"system": "kochia", "experiment": "Test D preemergence", "type": "in vivo, Kochia scoparia", "settings": "for Plant response rating: Kochia: scale 0 to 100", "excerpt": "as §2"}, "[11]": {"system": "oat, wild", "experiment": "Test D preemergence", "type": "in vivo, Avena fatua", "settings": "for Plant response rating: Oat, Wild: scale 0 to 100", "excerpt": "as §2"}, "[12]": {"system": "foxtail, green", "experiment": "Test D postemergence", "type": "in vivo, Setaria viridis", "settings": "scale 0 to 100", "excerpt": "as §2"}, "[13]": {"system": "deadnettle", "experiment": "Test D postemergence", "type": "in vivo, Lamium amplexicaule", "settings": "scale 0 to 100", "excerpt": "as §2"}, "[14]": {"system": "pigweed", "experiment": "Test D postemergence", "type": "in vivo, Amaranthus retroflexus", "settings": "scale 0 to 100", "excerpt": "as §2"}, "[15]": {"system": "buckwheat, wild", "experiment": "Test D postemergence", "type": "in vivo, Polygonum convolvulus", "settings": "scale 0 to 100", "excerpt": "as §2"}, "[16]": {"system": "radish, wild", "experiment": "Test D postemergence", "type": "in vivo, Raphanus raphanistrum", "settings": "scale 0 to 100", "excerpt": "as §2"}, "[17]": {"settings": "16 g ai/ha, 0 is no effect, 100 is complete control"}}, "data": [{"smiles": "Fc1ccc(-c2nc(OCC(F)(F)F)n(Cc3ccnc(C(F)(F)F)c3)n2)cc1", "note": "[Compound 30]", "values": [{"measurement": "Plant response rating (scale of 0 to 100 where 0 is no effect and 100 is complete control)", "setting": "[1]; 125 g ai/ha", "result": 90}, {"measurement": "Plant response rating (scale of 0 to 100 where 0 is no effect and 100 is complete control)", "setting": "[1]; 250 g ai/ha", "result": 90}, {"measurement": "Blackgrass plant response rating (0 to 100)", "setting": "[1]; 31 g ai/ha", "result": 60}, {"measurement": "Blackgrass plant response rating (0 to 100)", "setting": "[1]; 62 g ai/ha", "result": 80}, {"measurement": "Soybean plant response rating (0 to 100)", "setting": "[2]; 31 g ai/ha", "result": 10}, {"measurement": "Soybean plant response rating (0 to 100)", "setting": "[2]; 62 g ai/ha", "result": 5}, {"measurement": "Plant response rating (scale of 0 to 100 where 0 is no effect and 100 is complete control)", "setting": "[2]; Soybean, preemergence, 250 g ai/ha", "result": 40}, {"measurement": "Plant response rating (scale of 0 to 100 where 0 is no effect and 100 is complete control)", "setting": "[3]; 125 g ai/ha", "result": 100}, {"measurement": "Plant response rating (scale of 0 to 100 where 0 is no effect and 100 is complete control)", "setting": "[3]; 250 g ai/ha", "result": 100}, {"measurement": "Oilseed Rape plant response rating (0 to 100)", "setting": "[3]; 31 g ai/ha", "result": 80}, {"measurement": "Oilseed Rape plant response rating (0 to 100)", "setting": "[3]; 62 g ai/ha", "result": 80}, {"measurement": "Waterhemp plant response rating (0 to 100)", "setting": "[4]; 31 g ai/ha", "result": 100}, {"measurement": "Waterhemp plant response rating (0 to 100)", "setting": "[4]; 62 g ai/ha", "result": 100}, {"measurement": "Plant response rating (scale of 0 to 100 where 0 is no effect and 100 is complete control)", "setting": "[4]; Waterhemp, preemergence, 250 g ai/ha", "result": 100}, {"measurement": "Plant response rating (0 to 100), Blackgrass", "setting": "[5]; [17]", "result": 30}, {"measurement": "Plant response rating: Blackgrass", "setting": "[5]; 31 g ai/ha", "result": 45}, {"measurement": "Plant response rating: Blackgrass", "setting": "[5]; 62 g ai/ha", "result": 60}, {"measurement": "Plant response rating: Blackgrass", "setting": "[5]; 125 g ai/ha", "result": 70}, {"measurement": "Plant response rating (0 to 100), Canarygrass", "setting": "[6]; [17]", "result": 50}, {"measurement": "Plant response rating: Canarygrass", "setting": "[6]; 31 g ai/ha", "result": 70}, {"measurement": "Plant response rating: Canarygrass", "setting": "[6]; 62 g ai/ha", "result": 100}, {"measurement": "Plant response rating: Canarygrass", "setting": "[6]; 125 g ai/ha", "result": 100}, {"measurement": "Plant response rating (0 to 100), Russian Thistle", "setting": "[7]; [17]", "result": 80}, {"measurement": "Plant response rating: Russian Thistle", "setting": "[7]; 62 g ai/ha", "result": 90}, {"measurement": "Plant response rating: Russian Thistle", "setting": "[7]; 125 g ai/ha", "result": 90}, {"measurement": "Plant response rating (0 to 100), Field Poppy", "setting": "[8]; [17]", "result": 95}, {"measurement": "Plant response rating: Field Poppy", "setting": "[8]; 62 g ai/ha", "result": 100}, {"measurement": "Plant response rating: Field Poppy", "setting": "[8]; 125 g ai/ha", "result": 100}, {"measurement": "Plant response rating (0 to 100), Field Violet", "setting": "[9]; [17]", "result": 100}, {"measurement": "Plant response rating: Field Violet", "setting": "[9]; 62 g ai/ha", "result": 100}, {"measurement": "Plant response rating: Field Violet", "setting": "[9]; 125 g ai/ha", "result": 100}, {"measurement": "Plant response rating (0 to 100), Kochia", "setting": "[10]; [17]", "result": 85}, {"measurement": "Plant response rating: Kochia", "setting": "[10]; 62 g ai/ha", "result": 90}, {"measurement": "Plant response rating: Kochia", "setting": "[10]; 125 g ai/ha", "result": 95}, {"measurement": "Plant response rating (0 to 100), Oat, Wild", "setting": "[11]; [17]", "result": 45}, {"measurement": "Plant response rating: Oat, Wild", "setting": "[11]; 62 g ai/ha", "result": 70}, {"measurement": "Plant response rating: Oat, Wild", "setting": "[11]; 125 g ai/ha", "result": 80}, {"measurement": "Plant response rating: Foxtail, Green", "setting": "[12]; 16 g ai/ha", "result": 55}, {"measurement": "Plant response rating: Foxtail, Green", "setting": "[12]; 31 g ai/ha", "result": 75}, {"measurement": "Plant response rating: Foxtail, Green", "setting": "[12]; 62 g ai/ha", "result": 85}, {"measurement": "Plant response rating: Foxtail, Green", "setting": "[12]; 125 g ai/ha", "result": 90}, {"measurement": "Plant response rating: Deadnettle", "setting": "[13]; 16 g ai/ha", "result": 70}, {"measurement": "Plant response rating: Deadnettle", "setting": "[13]; 31 g ai/ha", "result": 75}, {"measurement": "Plant response rating: Deadnettle", "setting": "[13]; 62 g ai/ha", "result": 90}, {"measurement": "Plant response rating: Deadnettle", "setting": "[13]; 125 g ai/ha", "result": 100}, {"measurement": "Plant response rating: Pigweed", "setting": "[14]; 16 g ai/ha", "result": 100}, {"measurement": "Plant response rating: Pigweed", "setting": "[14]; 31 g ai/ha", "result": 100}, {"measurement": "Plant response rating: Pigweed", "setting": "[14]; 62 g ai/ha", "result": 100}, {"measurement": "Plant response rating: Pigweed", "setting": "[14]; 125 g ai/ha", "result": 100}, {"measurement": "Plant response rating: Buckwheat, Wild", "setting": "[15]; 16 g ai/ha", "result": 70}, {"measurement": "Plant response rating: Buckwheat, Wild", "setting": "[15]; 31 g ai/ha", "result": 70}, {"measurement": "Plant response rating: Buckwheat, Wild", "setting": "[15]; 62 g ai/ha", "result": 85}, {"measurement": "Plant response rating: Buckwheat, Wild", "setting": "[15]; 125 g ai/ha", "result": 85}, {"measurement": "Plant response rating: Radish, Wild", "setting": "[16]; 16 g ai/ha", "result": 95}, {"measurement": "Plant response rating: Radish, Wild", "setting": "[16]; 31 g ai/ha", "result": 95}, {"measurement": "Plant response rating: Radish, Wild", "setting": "[16]; 62 g ai/ha", "result": 98}, {"measurement": "Plant response rating: Radish, Wild", "setting": "[16]; 125 g ai/ha", "result": 100}]}]}
